Measured values published in US5792635A, “Method of inhibiting the sodium/proton exchanger NHE3 and method of inhibiting growth by administering squalamine” (priority 1995, dated 1998).
Entries after “also recorded” stand apart in the source; their conditions may differ.

Assays:
melanoma 1205Lu = test: Suppression of growth of human melanoma 1205Lu in RAG-1 mice; type: in vivo, mouse (human tumor)
From the text: As apparent from FIG. 5, melanoma 1205Lu develops aggressively in RAG-1 mice after implantation.

rabbit NHE1 = test: Inhibition of NHE1 in PS120 fibroblasts transfected with rabbit NHE1, internal pH by BCECF-AM; type: cell-based; conditions: 5 μg/ml; acid-preloaded; FIG. 2A
Protocol: (§1) PS120 fibroblasts transfected with rabbit or human NHE1 were grown as described above.

B16 melanoma [1] = test: Suppression of growth of B16 melanoma in C57B mice; type: in vivo, mouse
Protocol: The growth of B16 melanoma in C57B mice is dependent upon neovascularization.
Using the growth of B16 melanoma cells in C57B mice, a recognized model for the evaluation of inhibitors of angiogenesis on the growth of cancers, the effects of subcutaneous, intraperitoneal and oral administration of squalamine were evaluated.

[2] = system: vitelline capillaries of 3- to 5-day chick embryo; test: Chick embryo vitelline capillary regression assay; type: in vivo
Outline: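 Compounds applied to 3- to 5-day chick embryos in 0.1 ml of 15% Ficol 400 in PBS. Regression of vitelline capillaries, seen as pinching-off of capillary loops into enclosed sacs, was scored visually after 60 minutes.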

rabbit NHE3 = rabbit NHE3 (Oryctolagus cuniculus, UniProt P26432); conditions: 5 μg/ml
Protocol: Internal pH was measured either following acid loading or in the absence of an acid-loading challenge, with the results shown in FIGS. 1A and 1B.
Specifically, PS120 fibroblasts transfected with rabbit NHE3 were grown in supplemented Dulbecco's-modified Eagle's medium as described by Levine et al., J. Biol. Chem. 268, 1993, 25527-25535. […] For cells not acid-preloaded, the actual internal pH value was monitored as a function of time following addition of squalamine, with the results depicted in FIG. 1B.
PS120 fibroblasts transfected with rabbit NHE3 were grown and acid preloaded by exposure to 40 mM NH4 Cl as described above in conjunction with FIGS. 1A and 1B. Internal cellular pH changes expressed as the rate of pH recovery as a function of restored extracellular sodium ion concentration following exposure to 10 μg/ml of the compound were assayed with the fluorescent dye BCECF-AM as described above.

[3] = system: bacteria, fungi and protozoa; conditions: in words; cited from earlier work
human NHE1 = test: Inhibition of NHE1 in PS120 fibroblasts transfected with human NHE1, internal pH by BCECF-AM; type: cell-based; conditions: 5 μg/ml; acid-preloaded; FIG. 2B
Protocol: as §1

human T-cells = test: Inhibition of PHA-stimulated human lymphocytes; type: cell-based; conditions: 10 μg/ml
From the text: Results are tabulated below.

[4] = system: chick chorioallantoic membrane; test: Chorioallantoic membrane (CAM) model, inhibition of capillary growth; type: in vivo
From the text: The growing capillaries within the chorioallantoic membrane model (CAM model) have been used as a system in which to evaluate the effect of agents on their potential to inhibit new vessel growth. Neovascularization occurs most aggressively over the first week of embryonic development. Thereafter capillary growth is characterized by principally "elongation" rather than "de novo" formation.
In the standard assay, agents are applied locally to a region of the embryo over which neovascularization will occur. Agents are assessed by their ability to inhibit this process, as evaluated by visual examination about 7 days after application. […] The assay utilized is described in detail in Auerbach et al., Pharm. Ther. 51, 1991, 1-11.

[5] = system: human coronary artery smooth muscle; test: Proliferation of human coronary artery smooth muscle in vitro; type: cell-based; conditions: FIG. 15
From the text: Aminosterols of the invention may also have utility in inhibiting the growth factor mediated proliferation of smooth muscle within the artery. Following coronary angioplasty, reocclusion commonly occurs, secondary to reparative proliferation of the vascular smooth muscle within the wall of the surgically manipulated blood vessel. This process generally takes place over the course of 7-10 days. To evaluate whether an agent could prevent the growth factor mediated proliferation of smooth muscle within the artery, compound 1436 was evaluated in vitro for its effect on the proliferation of human coronary artery smooth muscle. Results for compound 1436 are shown in FIG. 13, and those for squalamine are shown in FIG. 14, with FIG. 15 being a composite logarithmic plot.

Xenopus tadpoles = test: Tadpole assay; conditions: 10 μg/ml
B16 = test: Cytostatic activity against B16 in culture; type: cell-based, murine; conditions: except at very high concentrations
B16 melanoma [6] = test: Synergistic inhibition of tumor growth, B16 melanoma in mice; type: in vivo, mouse; conditions: squalamine 15 mg/kg/day; compound 1436 tolerable schedule
Protocol: Based on the idea that tumor growth involves both the clonal expansion of a malignant cell along with the development of a supporting vascular supply, a combination of compound 1436 with squalamine was tested to determine whether it would achieve a synergistic effect on solid tumor growth. This concept was evaluated in the B16 melanoma model.
Animals were implanted with B16 melanoma followed by treatment with compound 1436 or 1256 administered in a combined schedule or separately. […] Thus, a combination of these two compounds achieves a therapeutic benefit in tumors dependent on neovascularization that may prevent metastatic spread.

[7] = system: human umbilical venous endothelial cells; test: LPS-/TNF-α-induced neutrophil adherence; type: cell-based; conditions: 10 μg, 1.0 μg, or 0.1 μg; three different subjects
From the text: Methods 109, 1988, 175-184.

rabbit NHE3, sequence (P26432 30-832): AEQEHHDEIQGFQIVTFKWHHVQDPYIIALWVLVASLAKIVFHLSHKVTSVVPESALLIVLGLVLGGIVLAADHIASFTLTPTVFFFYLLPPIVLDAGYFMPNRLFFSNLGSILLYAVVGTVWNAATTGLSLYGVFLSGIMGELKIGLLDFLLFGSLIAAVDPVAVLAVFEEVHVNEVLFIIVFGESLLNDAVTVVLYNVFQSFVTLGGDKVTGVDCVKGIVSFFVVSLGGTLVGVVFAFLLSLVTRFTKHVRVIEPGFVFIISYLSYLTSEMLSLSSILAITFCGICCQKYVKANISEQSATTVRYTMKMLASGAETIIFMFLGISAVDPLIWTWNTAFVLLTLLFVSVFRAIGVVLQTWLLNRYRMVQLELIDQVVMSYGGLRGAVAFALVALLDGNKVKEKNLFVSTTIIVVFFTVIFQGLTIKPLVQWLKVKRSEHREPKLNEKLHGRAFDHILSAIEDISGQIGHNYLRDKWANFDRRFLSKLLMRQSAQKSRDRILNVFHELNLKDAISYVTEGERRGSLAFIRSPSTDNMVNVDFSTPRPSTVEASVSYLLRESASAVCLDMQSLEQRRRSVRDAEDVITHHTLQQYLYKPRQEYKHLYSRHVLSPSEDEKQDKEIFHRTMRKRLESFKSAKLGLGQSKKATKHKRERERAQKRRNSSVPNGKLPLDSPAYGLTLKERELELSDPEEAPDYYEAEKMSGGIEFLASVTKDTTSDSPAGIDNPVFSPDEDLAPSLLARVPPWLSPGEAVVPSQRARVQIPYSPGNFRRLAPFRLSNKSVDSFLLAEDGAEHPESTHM

## CC(C)[C@@H](CC[C@@H](C)[C@H]1CC[C@H]2[C@@H]3[C@H](O)C[C@H]4C[C@@H](NCCCNCCCCN)CC[C@]4(C)[C@H]3CC[C@]12C)OS(=O)(=O)O [Squalamine]
Melanoma 1205Lu; 10, 20, 40 mg/kg/d, FIG. 5
  suppression of melanoma 1205Lu growth: suppress the growth of melanoma 1205Lu in RAG-1 mice in a dose-dependent fashion
Melanoma 1205Lu; RAG-1 mice
  reversibility after cessation of treatment: reversible
Rabbit NHE1
  inhibitory activity against rabbit NHE1: no inhibitory activity
B16 melanoma [1]; B16-bearing C57B mice
  body weight and hematologic parameters: no significant depression
B16 melanoma [1]; intraperitoneal, FIG. 4B
  suppression of B16 tumor volume: dose-dependent suppression of tumor volume
B16 melanoma [1]; oral, FIG. 4C
  suppression of B16 tumor volume: dose-dependent suppression of tumor volume
B16 melanoma [1]; subcutaneous, FIG. 4A
  suppression of B16 tumor volume: dose-dependent suppression of tumor volume
[2]; 3- to 5-day chick embryos
  effect on vitelline capillaries: disrupt vitelline capillaries
[2]; 3-day chick embryo
  lag period before constriction between capillary and secondary vessels: around 15 minutes
[2]; Table 5
  activity in vitelline capillary regression assay: especially active
[2]; chick embryo
  embryonic heart beat: continued to beat vigorously
  hemorrhage: No hemorrhage was seen
[2]; chick embryo, microscopic
  hemolysis: absence of hemolysis
Rabbit NHE3; FIG. 1A, 1B
  inhibition of NHE3 (Km and Vmax): inhibited NHE3 with respect to proton concentration at both Km and Vmax levels
Rabbit NHE3; not acid-preloaded, FIG. 1B
  resting internal pH: the resting pH of these cells was also inhibited
[3]
  antibiotic activity: broad-spectrum antibiotic, killing bacteria, fungi and protozoa
Human NHE1
  inhibitory activity against human NHE1: no inhibitory activity
Human T-cells
  inhibition of blast transformation, in words: Some effect
[4]; 13-day embryo, 5.0 μg applied
  positive (fraction printed under Percentage positive): 0/26
[4]; in words
  anti-angiogenic activity in CAM: potent but specific inhibitory activity, equal in potency to the most active compounds described to date in the literature
[4]; ten times 0.65 μg, 13-day old chick
  inhibitory effect on 13-day chick: no inhibitory effect
[5]
  suppression of growth of human coronary artery smooth muscle: suppress in vitro the growth of human coronary artery smooth muscle
Xenopus tadpoles
  death / lethality time: ≤ 2 h
Xenopus tadpoles; stage 59-60 Xenopus
  observed response in tadpole: blood flow through the capillaries of the tail shut down; also recorded: unaltered blood flow through the fine capillaries of the hands and feet; also recorded: common vascular occlusive effect; also recorded: Vascular occlusion in fine capillaries of tail. No effect on vascular flow through hands or feet
B16
  cytostatic activity against B16 in culture: minimal cytostatic activity
B16 melanoma [6]
  effect of single agent versus combination: Neither administration of squalamine at 15 mg/kg/day nor compound 1436 alone in a tolerable schedule could achieve this effect
[7]
  inhibition of neutrophil adherence: no inhibition
